Format in all cases: functional, cell-based
One test concerns KB. In words: Cytotoxicity against human KB cells by SRB assay. A general note: In SRB staining, fixed cells bind dye roughly in proportion to their protein.
The test system of test [1] is A10. In words: Induction of cellular microtubule disrupting activity in rat A10 cells at 1 ug/ml after 24 hrs by indirect immunofluorescence technique.
A further test concerns LoVo. Kind of test: Cytotoxicity against human LoVo cells by SRB assay.
Test [2] concerns A10. Kind of test: Effect on morphology in rat A10 cells assessed as breakdown of nucleus into micronuclei.
Test [3] has as its system A10. In words: Induction of cellular microtubule disrupting activity in rat A10 cells at 0.1 ug/ml after 24 hrs by indirect immunofluorescence technique.
In test [4] the test system is A10. In words: Induction of actin filament disrupting activity in rat A10 cells by rhodamine-phalloidin staining.

The IC50 is the concentration that inhibits the measured activity by half.

Molecules are shown by their SMILES. Active and inactive are the calls of the source. The rule behind the calls is not given here. Non-standard residues stand in square brackets, D forms with d. Residues, ends and D or L forms follow the SMILES beside them. *: point of attachment. Dolaproine = CO[C@@H]([C@@H]1CCCN1)[C@@H](C)C(=O)O; Dil = CC[C@H](C)[C@H](NC)[C@@H](CC(=O)O)OC; NMe2Val = CC(C)[C@@H](C(=O)*)N(C)C; PhLac = O=C(O)[C@@H](O)Cc1ccccc1

Regarding `CC[C@H](C)[C@@H]([C@@H](CC(=O)N1CCC[C@H]1[C@H](OC)[C@@H](C)C(=O)O[C@@H](Cc1ccccc1)C(=O)O)OC)N(C)C(=O)[C@@H](NC(=O)[C@H](C(C)C)N(C)C)C(C)C` [SYMPLOSTATIN 3] (NMe2Val-V[Dil][Dolaproine][PhLac]-OH), the values for the 50% inhibitory concentration (IC50) in the test with KB and with LoVo were 3.9 nM and 10.3 nM, respectively. Further, the result with A10 [1], in the test on A10 [2] and in the test on A10 [3] was Active. For the same molecule, in the test on A10 [4], the outcome was inactive.

These data come from ChEMBL document CHEMBL1159302, “Symplostatin 3, a new dolastatin 10 analogue from the marine cyanobacterium Symploca sp. VP452” (J Nat Prod, 2002).
